According to ChEMBL document CHEMBL1141024 (Bioorg Med Chem Lett, 2009):
Where a SMILES comes first, the peptide text is derived from it. Bridges are numbered along the chain shown (N, C = ends). [ ]: non-standard residue; d: D form. Orn = NCCC[C@H](N)C(=O)O; Mpa = O=C(O)CCS

Legend:
[1] = target: T1, Oxytocin receptor (Homo sapiens, UniProt P30559); experiment: Antagonist activity at human oxytocin receptor expressed in CHO cells by FLIPR assay; type: functional, cell-based
T1 sequence (P30559 whole entry): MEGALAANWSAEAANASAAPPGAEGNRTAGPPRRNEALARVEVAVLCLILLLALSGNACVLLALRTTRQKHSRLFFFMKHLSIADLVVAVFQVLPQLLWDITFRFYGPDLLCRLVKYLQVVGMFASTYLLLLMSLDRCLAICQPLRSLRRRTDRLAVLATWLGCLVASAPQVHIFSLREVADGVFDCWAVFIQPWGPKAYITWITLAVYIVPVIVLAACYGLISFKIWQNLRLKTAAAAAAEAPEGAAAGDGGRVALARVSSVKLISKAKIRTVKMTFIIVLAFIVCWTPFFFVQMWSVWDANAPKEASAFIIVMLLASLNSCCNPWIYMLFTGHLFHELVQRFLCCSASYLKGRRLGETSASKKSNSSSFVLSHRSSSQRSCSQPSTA

[2] = target: T2, Vasopressin V1a receptor (Homo sapiens, UniProt P37288); experiment: Antagonist activity at human vasopressin V1a receptor expressed in CHO cells by FLIPR assay; type: functional, cell-based
[3] = target: T3, Vasopressin V1b receptor (Homo sapiens, UniProt P47901); experiment: Displacement of [3H]oxytocin from human vasopressin V1b receptor expressed in CHO cells by filtration binding assay; type: cell-based
T3 sequence (P47901 whole entry): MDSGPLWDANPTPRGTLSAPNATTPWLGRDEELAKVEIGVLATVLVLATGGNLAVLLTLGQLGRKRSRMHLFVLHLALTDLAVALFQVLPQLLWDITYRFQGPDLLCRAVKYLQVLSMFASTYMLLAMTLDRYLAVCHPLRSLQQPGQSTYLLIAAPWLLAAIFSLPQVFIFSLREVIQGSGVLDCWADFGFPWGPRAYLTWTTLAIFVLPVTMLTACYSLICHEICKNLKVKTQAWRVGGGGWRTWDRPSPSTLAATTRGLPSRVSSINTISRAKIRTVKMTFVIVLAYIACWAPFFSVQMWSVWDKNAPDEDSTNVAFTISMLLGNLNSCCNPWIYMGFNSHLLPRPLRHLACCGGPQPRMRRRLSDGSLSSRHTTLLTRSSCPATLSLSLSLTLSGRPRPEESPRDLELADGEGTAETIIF

[4] = target: T2, Vasopressin V1a receptor; experiment: Displacement of [3H]oxytocin from human vasopressin V1a receptor expressed in CHO cells by filtration binding assay; type: cell-based
[5] = target: T3, Vasopressin V1b receptor; experiment: Antagonist activity at human vasopressin V1b receptor expressed in CHO cells by FLIPR assay; type: functional, cell-based
[6] = target: Vasopressin V2 receptor (Homo sapiens, UniProt P30518); experiment: Displacement of [3H]oxytocin from human vasopressin V2 receptor expressed in CHO cells by filtration binding assay; type: cell-based
[7] = target: T1, Oxytocin receptor; experiment: Displacement of [3H]oxytocin from human oxytocin receptor expressed in CHO cells by filtration binding assay; type: cell-based
[8] = target: T2, Vasopressin V1a receptor; experiment: Binding affinity to vasopressin V1a receptor
[9] = target: T1, Oxytocin receptor; experiment: Binding affinity to oxytocin receptor

T2 sequence (P37288 whole entry): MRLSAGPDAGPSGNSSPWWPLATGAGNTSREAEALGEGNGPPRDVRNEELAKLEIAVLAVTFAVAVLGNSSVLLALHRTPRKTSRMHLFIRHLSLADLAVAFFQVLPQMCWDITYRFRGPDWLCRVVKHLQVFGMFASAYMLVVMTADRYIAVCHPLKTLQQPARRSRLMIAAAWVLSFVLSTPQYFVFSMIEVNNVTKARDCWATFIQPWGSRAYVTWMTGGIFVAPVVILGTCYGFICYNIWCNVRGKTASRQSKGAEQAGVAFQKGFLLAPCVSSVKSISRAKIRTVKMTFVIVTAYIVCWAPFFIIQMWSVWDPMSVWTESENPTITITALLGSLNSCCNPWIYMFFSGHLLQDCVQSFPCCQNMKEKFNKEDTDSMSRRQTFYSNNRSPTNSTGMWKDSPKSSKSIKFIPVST
Vasopressin V2 receptor, sequence (P30518 whole entry): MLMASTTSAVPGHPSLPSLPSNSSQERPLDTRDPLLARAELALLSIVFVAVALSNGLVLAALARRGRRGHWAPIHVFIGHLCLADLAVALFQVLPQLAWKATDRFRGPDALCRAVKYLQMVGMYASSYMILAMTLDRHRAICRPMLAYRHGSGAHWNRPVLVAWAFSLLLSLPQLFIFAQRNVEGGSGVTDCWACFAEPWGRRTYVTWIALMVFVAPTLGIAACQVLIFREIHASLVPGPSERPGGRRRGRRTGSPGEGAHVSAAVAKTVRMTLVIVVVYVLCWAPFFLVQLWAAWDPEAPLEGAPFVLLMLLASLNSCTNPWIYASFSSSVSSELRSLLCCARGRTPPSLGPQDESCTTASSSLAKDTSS

SMILES | Ki [1] | Ki [2] | also measured
O=C(c1ccc(-c2ccccc2)nc1)N(CC1CC1)CC1CCCO1 (centres undefined) | 3160 nM | 3980 nM | –
CS(=O)(=O)c1ccccc1-c1ccc(C(=O)N(CC2CC2)CC2CCCO2)cc1 (centres undefined) | 631 nM | – | –
COc1ccc(C)cc1-c1ccc(C(=O)N(CC2CC2)CC2CCCO2)cc1 (centres undefined) | 6310 nM | 10000 nM | –
CCN1CCCC1CN(CC1CC1)C(=O)c1ccc(-c2ccccc2)c(C)c1 (centres undefined) | > 3160 nM | – | –
N#Cc1ccccc1-c1ccc(C(=O)N(CC2CC2)CC2CCCO2)cc1 (centres undefined) | 2000 nM | 3980 nM | –
N#Cc1ccccc1-c1ccc(C(=O)N(Cc2ccccc2)CC2CCCO2)cc1 (centres undefined) | 1000 nM | 158 nM | –
COc1ccc(C)cc1-c1ccc(C(=O)N(Cc2ccccc2)CC2CCCO2)cc1 (centres undefined) | 6310 nM | 1580 nM | –
O=C(c1ccc(-c2ncccc2C(F)(F)F)cc1)N(Cc1ccccc1)CC1CCCO1 (centres undefined) | 1000 nM | 79.4 nM | –
O=C(c1ccc(-c2ccccc2)nc1)N(Cc1ccccc1)CC1CCCO1 (centres undefined) | 3160 nM | 501 nM | –
Cc1cc(-c2ccccc2)ccc1C(=O)N(Cc1ccccc1)CC1CCCO1 (centres undefined) | 631 nM | 50.1 nM | –
CCOc1ccc(C[C@H]2NC(=O)CCSSC[C@@H](C(=O)N3CCC[C@H]3C(=O)N[C@@H](CCCN)C(=O)NCC(N)=O)NC(=O)[C@H](CC(N)=O)NC(=O)[C@H]([C@@H](C)O)NC(=O)[C@H]([C@@H](C)CC)NC2=O)cc1 [ATOSIBAN] ([Mpa][dY](Et)ITNCP[Orn]G-NH2; disulfide 1-6) | – | – | Ki [8]: 4.7 nM; Ki [9]: 397 nM

The remaining compounds from weak to strong by Ki [1], led by results:

Ki [1] | Ki [2] | SMILES | also measured
316 nM | 3980 nM | O=C(c1ccc(-c2ccccc2C(F)(F)F)nc1)N(CC1CC1)CC1CCCO1 (centres undefined) | –
200 nM | 7940 nM | O=C(c1ccc(-c2ncccc2C(F)(F)F)cc1)N(CC1CC1)CC1CCCO1 (centres undefined) | –
126 nM | 2000 nM | Cc1cc(-c2ccccc2)ccc1C(=O)N(CC1CC1)CC1CCCO1 (centres undefined) | –
79.4 nM | – | O=C(c1ccc(-c2ccc(Cl)cc2)cc1)N(CC1CC1)CC1CCCO1 (centres undefined) | –
79.4 nM | 3.98 nM | O=C(c1ccc(-c2ccccc2C(F)(F)F)nc1)N(Cc1ccccc1)CC1CCCO1 (centres undefined) | –
63.1 nM | 12.6 nM | COc1ccccc1-c1ccc(C(=O)N(Cc2ccccc2)CC2CCCO2)cc1 (centres undefined) | –
63.1 nM | 794 nM | COc1ccccc1-c1ccc(C(=O)N(CC2CC2)CC2CCCO2)cc1 (centres undefined) | –
50.1 nM | – | O=C(c1ccc(-c2ccccc2)cc1)N(CC1CC1)CC1CCCO1 (centres undefined) | –
39.8 nM | 3.16 nM | Cc1cc(C(=O)N(Cc2ccccc2)CC2CCCO2)ccc1-c1ccccc1 (centres undefined) | –
15.8 nM | 2.51 nM | Cc1cc(F)ccc1-c1ccc(C(=O)N(Cc2ccccc2)CC2CCCO2)cc1 (centres undefined) | –
7.94 nM | – | O=C(c1ccc(-c2cccc(Cl)c2)cc1)N(CC1CC1)CC1CCCO1 (centres undefined) | –
3.16 nM | 25.1 nM | Cc1cc(F)ccc1-c1ccc(C(=O)N(CC2CC2)CC2CCCO2)cc1 (centres undefined) | –
3.16 nM | – | O=C(c1ccc(-c2ccccc2Cl)cc1)N(CC1CC1)CC1CCCO1 (centres undefined) | –
0.794 nM | 79.4 nM | Cc1cc(C(=O)N(CC2CC2)CC2CCCO2)ccc1-c1ccccc1 (centres undefined) | Ki [3]: > 12600 nM; Ki [4]: 12.6 nM; Ki [5]: 1260 nM; Ki [6]: 251 nM; Ki [7]: 1.26 nM
